Data reported in USRE49022E1, “Insecticidal compounds” (SYNGENTA PARTICIPATIONS AG, priority 2013, dated 2022).

How the values were obtained:
Format in all cases: in vivo
[1] = system: Myzus persicae (Green Peach Aphid); assay: Myzus persicae, sucrose solution / Parafilm test; details: 120 h, mixed with sucrose solution under Parafilm, mortality 5 days after infestation
Excerpt: Test compounds were applied by pipette into 24 well plates and mixed with Sucrose solution. Application rate: 12.5 ppm. The plates were closed with a stretched Parafilm. A plastic stencil with 24 holes is placed onto the plate and infested pea seedlings were placed directly on the Parafilm. The infested plate is closed with a gel blotting paper and another plastic stencil and then turned upside down. 5 days after infestation the samples were checked on mortality.

[2] = system: Myzus persicae (Green Peach Aphid); assay: Myzus persicae, sunflower leaf disc spray test; details: foliar, 144 h, sprayed sunflower leaf discs, aphid population of mixed ages, mortality after 6 DAT
Protocol: Sunflower leaf discs were placed on agar in a 24-well microtiter plate and sprayed with test solutions at an application rate of 200 ppm. After drying, the leaf discs were infested with an aphid population of mixed ages. After an incubation period of 6 DAT, samples were checked for mortality.

[3] = system: Tetranychus urticae (Two-Spotted Spider Mite); assay: Tetranychus urticae, bean leaf disc spray test; details: foliar, 192 h, sprayed bean leaf discs, mite populations of mixed ages, 8 days
Excerpt: Bean leaf discs on agar in 24-well microtiter plates were sprayed with test solutions at an application rate of 200 ppm. After drying, the leaf discs are infested with mite populations of mixed ages. 8 days later, discs were checked for mortality.

[4] = system: Diabrotica balteata (Corn Root Worm); assay: Diabrotica balteata, artificial diet MTP test; details: 120 h, 200 ppm (concentration in well 18 ppm), L2 larvae, larval mortality after 5 days
Protocol: A 24-well microtiter plate (MTP) with artificial diet was treated with test solutions at an application rate of 200 ppm (concentration in well 18 ppm) by pipetting. After drying, the MTP's were infested with L2 larvae (6-10 per well). After an incubation period of 5 days, samples were checked for larval mortality The following compound gave at least 80% control of Diabrotica balteata: 1, 2, 3, 4, 5, 6, 7, 8, 9, 10, 11, 12, 13, 14, 15, 16, 17, 18, 19, 20, 21, 22, 23, 24, 25, 26, 27, 28, 29, 30, 31, 32, 33, 34, 35, 36, 37, 38, 39, 40, 41, 42, 43, 44, 45, 46, 47, 48, 49, 50, 51.

[5] = system: Plutella xylostella (Diamond Back Moth); assay: Plutella xylostella, artificial diet MTP test; details: 144 h, 200 ppm (concentration in well 18 ppm), L2 larvae, 6 days
Protocol: 24-well microtiter plate (MTP) with artificial diet was treated with test solutions at an application rate of 200 ppm (concentration in well 18 ppm) by pipetting. After drying, the MTP's were infested with L2 larvae (7-12 per well). After an incubation period of 6 days, samples were checked for larval mortality and growth regulation. The following compound gave at least 80% mortality of Plutella xylostella: 1, 2, 3, 4, 5, 6, 7, 8, 9, 10, 11, 12, 13, 14, 15, 16, 17, 18, 19, 20, 21, 22, 23, 24, 25, 26, 27, 28, 29, 30, 31, 32, 33, 34, 35, 36, 37, 38, 39, 40, 41, 42, 43, 44, 45, 46, 47, 48, 49, 50.

[6] = system: Thrips tabaci (Onion Thrips); assay: Thrips tabaci, sunflower leaf disc spray test; details: foliar, 168 h, sprayed sunflower leaf discs, mortality after 7 days
[7] = system: Spodoptera littoralis (Egyptian Cotton Leaf Worm); assay: Spodoptera littoralis, agar / lettuce root uptake test; details: 144 h, mixed with agar, uptake by lettuce roots, mortality 6 days after infestation
Excerpt: Test compounds were applied by pipette into 24 well plates and mixed with agar. Application rate: 12.5 ppm. Lettuce seeds were placed on the agar and the multi well plate is closed by another plate which contains also agar. After 7 days the roots have absorbed the compound and the lettuce has grown into the lid plate. The lettuce leafs were now cut off into the lid plate. Spodoptera eggs were pipetted through a plastic stencil on a humid gel blotting paper and the plate closed with it. The samples are checked for mortality 6 days after infestation.

[8] = system: Spodoptera littoralis (Egyptian Cotton Leafworm); assay: Spodoptera littoralis, cotton leaf disc spray test; details: foliar, 72 h, sprayed cotton leaf discs, L1 larvae, 3 days after treatment
Excerpt: Cotton leaf discs were placed on agar in a 24-well microtiter plate and sprayed with test solutions at an application rate of 200 ppm. After drying, the leaf discs were infested with 5 L1 larvae. The samples were checked for mortality 3 days after treatment (DAT).

CCN(C(=O)c1ccncc1)c1cccc(C(=O)Nc2c(Cl)cc(C(F)(C(F)(F)F)C(F)(F)Br)cc2Br)c1OC (centres unmarked) [Compound 2, N-[3-[[2-bromo-4-[1-[bromo(difluoro)methyl]-1,2,2,2-tetrafluoro-ethyl]-6-chloro-phenyl]carbamoyl]-2-methoxy-phenyl]-N-ethyl-pyridine-4-carboxamide]
≥ 80%: pest or weed control at 12.5 ppm [1] | pest or weed control at 200 ppm [2] | mortality at 200 ppm [3] | pest or weed control at 200 ppm [4] | mortality at 200 ppm [5] | pest or weed control at 200 ppm [6] | pest or weed control at 12.5 ppm [7] | mortality at 200 ppm [8]

CCN(C(=O)c1ccc(C#N)cc1)c1cccc(C(=O)Nc2c(Cl)cc(C(F)(C(F)(F)F)C(F)(F)Br)cc2Br)c1OC (centres unmarked) [Compound 1, N-[2-bromo-4-[1-[bromo(difluoro)methyl]-1,2,2,2-tetrafluoro-ethyl]-6-chloro-phenyl]-3-[(4-cyanobenzoyl)-ethyl-amino]-2-methoxy-benzamide]
≥ 80%: pest or weed control at 12.5 ppm [1] | pest or weed control at 200 ppm [2] | mortality at 200 ppm [3] | pest or weed control at 200 ppm [4] | mortality at 200 ppm [5] | pest or weed control at 200 ppm [6] | pest or weed control at 12.5 ppm [7] | mortality at 200 ppm [8]

O=C(Nc1cccc(C(=O)Nc2c(Br)cc(C(F)(C(F)(F)F)C(F)(F)Cl)cc2OC(F)F)c1F)c1cc[n+]([O-])cc1 (centres unmarked) [Compound 23]
≥ 80%: pest or weed control at 12.5 ppm [1] | pest or weed control at 200 ppm [2] | mortality at 200 ppm [3] | pest or weed control at 200 ppm [4] | mortality at 200 ppm [5] | pest or weed control at 200 ppm [6] | pest or weed control at 12.5 ppm [7] | mortality at 200 ppm [8]

CCN(C(=O)c1cccnc1)c1cccc(C(=O)Nc2c(Br)cc(C(F)(C(F)(F)F)C(F)(F)Cl)cc2OC(F)F)c1OC (centres unmarked) [Compound 40]
≥ 80%: pest or weed control at 12.5 ppm [1] | pest or weed control at 200 ppm [2] | mortality at 200 ppm [3] | pest or weed control at 200 ppm [4] | mortality at 200 ppm [5] | pest or weed control at 200 ppm [6] | pest or weed control at 12.5 ppm [7] | mortality at 200 ppm [8]

O=C(Nc1cccc(C(=O)Nc2c(Br)cc(C(F)(C(F)(F)F)C(F)(F)Cl)cc2OC(F)F)c1F)c1cccnc1 (centres unmarked) [Compound 12]
≥ 80%: pest or weed control at 12.5 ppm [1] | pest or weed control at 200 ppm [2] | mortality at 200 ppm [3] | pest or weed control at 200 ppm [4] | mortality at 200 ppm [5] | pest or weed control at 200 ppm [6] | pest or weed control at 12.5 ppm [7] | mortality at 200 ppm [8]

O=C(Nc1cccc(C(=O)Nc2c(Br)cc(C(F)(C(F)(F)F)C(F)(F)Br)cc2OC(F)F)c1F)c1ccncc1 (centres unmarked) [Compound 4]
≥ 80%: pest or weed control at 12.5 ppm [1] | pest or weed control at 200 ppm [2] | mortality at 200 ppm [3] | pest or weed control at 200 ppm [4] | mortality at 200 ppm [5] | pest or weed control at 200 ppm [6] | pest or weed control at 12.5 ppm [7] | mortality at 200 ppm [8]

N#Cc1ccc(C(=O)Nc2cccc(C(=O)Nc3c(Br)cc(C(F)(C(F)(F)F)C(F)(F)Cl)cc3OC(F)F)c2F)cc1 (centres unmarked) [Compound 13]
≥ 80%: pest or weed control at 12.5 ppm [1] | pest or weed control at 200 ppm [2] | mortality at 200 ppm [3] | pest or weed control at 200 ppm [4] | mortality at 200 ppm [5] | pest or weed control at 200 ppm [6] | pest or weed control at 12.5 ppm [7] | mortality at 200 ppm [8]

N#Cc1ccc(C(=O)Nc2cccc(C(=O)Nc3c(Br)cc(C(F)(C(F)(F)F)C(F)(F)Br)cc3OC(F)F)c2F)cc1 (centres unmarked) [Compound 5]
≥ 80%: pest or weed control at 12.5 ppm [1] | pest or weed control at 200 ppm [2] | mortality at 200 ppm [3] | pest or weed control at 200 ppm [4] | mortality at 200 ppm [5] | pest or weed control at 200 ppm [6] | pest or weed control at 12.5 ppm [7] | mortality at 200 ppm [8]

CCN(C(=O)c1ccc(C#N)cc1)c1cccc(C(=O)Nc2c(Br)cc(C(F)(C(F)(F)F)C(F)(F)Cl)cc2OC(F)F)c1F (centres unmarked) [Compound 31]
≥ 80%: pest or weed control at 12.5 ppm [1] | pest or weed control at 200 ppm [2] | mortality at 200 ppm [3] | pest or weed control at 200 ppm [4] | mortality at 200 ppm [5] | pest or weed control at 200 ppm [6] | pest or weed control at 12.5 ppm [7] | mortality at 200 ppm [8]

CCN(C(=O)c1ccc(C#N)cc1)c1cccc(C(=O)Nc2c(Br)cc(C(F)(C(F)(F)F)C(F)(F)Br)cc2OC(F)F)c1F (centres unmarked) [Compound 8]
≥ 80%: pest or weed control at 12.5 ppm [1] | pest or weed control at 200 ppm [2] | mortality at 200 ppm [3] | pest or weed control at 200 ppm [4] | mortality at 200 ppm [5] | pest or weed control at 200 ppm [6] | pest or weed control at 12.5 ppm [7] | mortality at 200 ppm [8]

CCN(C(=O)c1cc[n+]([O-])cc1)c1cccc(C(=O)Nc2c(Br)cc(C(F)(C(F)(F)F)C(F)(F)Cl)cc2OC(F)F)c1OC (centres unmarked) [Compound 44, N-[3-[[2-bromo-4-[1-[chloro(difluoro)methyl]-1,2,2,2-tetrafluoro-ethyl]-6-(difluoromethoxy)phenyl]carbamoyl]-2-methoxy-phenyl]-N-ethyl-1-oxido-pyridin-1-ium-4-carboxamide]
≥ 80%: pest or weed control at 12.5 ppm [1] | pest or weed control at 200 ppm [2] | mortality at 200 ppm [3] | pest or weed control at 200 ppm [4] | mortality at 200 ppm [5] | pest or weed control at 200 ppm [6] | pest or weed control at 12.5 ppm [7] | mortality at 200 ppm [8]

COc1c(NC(=O)c2cccnc2)cccc1C(=O)Nc1c(Br)cc(C(F)(C(F)(F)F)C(F)(F)Cl)cc1OC(F)F (centres unmarked) [Compound 15]
≥ 80%: pest or weed control at 12.5 ppm [1] | pest or weed control at 200 ppm [2] | mortality at 200 ppm [3] | pest or weed control at 200 ppm [4] | mortality at 200 ppm [5] | pest or weed control at 200 ppm [6] | pest or weed control at 12.5 ppm [7] | mortality at 200 ppm [8]

COc1c(NC(=O)c2ccc[n+]([O-])c2)cccc1C(=O)Nc1c(Br)cc(C(F)(C(F)(F)F)C(F)(F)Cl)cc1OC(F)F (centres unmarked) [Compound 26]
≥ 80%: pest or weed control at 12.5 ppm [1] | pest or weed control at 200 ppm [2] | mortality at 200 ppm [3] | pest or weed control at 200 ppm [4] | mortality at 200 ppm [5] | pest or weed control at 200 ppm [6] | pest or weed control at 12.5 ppm [7] | mortality at 200 ppm [8]

CCN(C(=O)c1ccc[n+]([O-])c1)c1cccc(C(=O)Nc2c(Br)cc(C(F)(C(F)(F)F)C(F)(F)Cl)cc2OC(F)F)c1OC (centres unmarked) [Compound 48]
≥ 80%: pest or weed control at 12.5 ppm [1] | pest or weed control at 200 ppm [2] | mortality at 200 ppm [3] | pest or weed control at 200 ppm [4] | mortality at 200 ppm [5] | pest or weed control at 200 ppm [6] | pest or weed control at 12.5 ppm [7] | mortality at 200 ppm [8]

CCN(C(=O)c1ccncc1)c1cccc(C(=O)Nc2c(Br)cc(C(F)(C(F)(F)F)C(F)(F)Br)cc2OC(F)F)c1OC (centres unmarked) [Compound 9]
≥ 80%: pest or weed control at 12.5 ppm [1] | pest or weed control at 200 ppm [2] | mortality at 200 ppm [3] | pest or weed control at 200 ppm [4] | mortality at 200 ppm [5] | pest or weed control at 200 ppm [6] | pest or weed control at 12.5 ppm [7] | mortality at 200 ppm [8]

CCN(C(=O)c1ccc[n+]([O-])c1)c1cccc(C(=O)Nc2c(Br)cc(C(F)(C(F)(F)F)C(F)(F)Cl)cc2OC(F)F)c1F (centres unmarked) [Compound 47]
≥ 80%: pest or weed control at 12.5 ppm [1] | pest or weed control at 200 ppm [2] | mortality at 200 ppm [3] | pest or weed control at 200 ppm [4] | mortality at 200 ppm [5] | pest or weed control at 200 ppm [6] | pest or weed control at 12.5 ppm [7] | mortality at 200 ppm [8]
